Results reported in patent US20240116985A1, “STAPLED PEPTIDES AND METHODS THEREOF” (priority 2020, published 2024).

Assays:
CHI Log D procedure = assay type: physicochemical; conditions: for CHI Log D: pH 7.4; for chromatographic logD: pH 7.4, CHI Log D
[1] = biological target: T1, full-length B-Catenin (Uniprot ID P35222) (Homo sapiens, UniProt P35222); assay: Alphascreen binding assay (beta-catenin / biotin-TCF4 10-53)
T1 construct: 65 nM full-length B-Catenin (Uniprot ID P35222)
T1 sequence (P35222 1-781): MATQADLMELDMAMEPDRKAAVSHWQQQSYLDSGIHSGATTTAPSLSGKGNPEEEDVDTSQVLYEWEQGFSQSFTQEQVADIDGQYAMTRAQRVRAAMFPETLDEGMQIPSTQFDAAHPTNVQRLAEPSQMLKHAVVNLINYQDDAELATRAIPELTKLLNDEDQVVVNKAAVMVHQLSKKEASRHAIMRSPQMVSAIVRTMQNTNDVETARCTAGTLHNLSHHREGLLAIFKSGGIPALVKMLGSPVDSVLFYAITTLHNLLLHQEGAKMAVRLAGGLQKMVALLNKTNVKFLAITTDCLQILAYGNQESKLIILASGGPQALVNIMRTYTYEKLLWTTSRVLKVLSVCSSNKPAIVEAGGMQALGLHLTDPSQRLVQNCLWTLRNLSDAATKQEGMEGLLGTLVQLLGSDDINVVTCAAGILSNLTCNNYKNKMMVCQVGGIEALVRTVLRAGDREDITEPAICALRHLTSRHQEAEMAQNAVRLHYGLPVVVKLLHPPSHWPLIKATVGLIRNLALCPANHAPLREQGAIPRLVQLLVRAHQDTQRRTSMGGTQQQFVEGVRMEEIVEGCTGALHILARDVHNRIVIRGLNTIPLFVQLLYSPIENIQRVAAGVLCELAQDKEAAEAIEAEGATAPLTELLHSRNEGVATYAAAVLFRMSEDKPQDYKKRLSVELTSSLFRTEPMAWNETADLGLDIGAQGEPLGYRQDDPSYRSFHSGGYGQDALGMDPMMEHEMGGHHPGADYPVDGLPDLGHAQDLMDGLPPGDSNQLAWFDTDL
Procedure: In some embodiments, an assay is an Alphascreen binding assay. A useful protocol is described below as an example.
Alphascreen binding assay: Using the AlphaScreen Histidine (Nickel Chelate) Detection Kit (PerkinElmer), peptide solutions were prepared in buffer (50 mM Tris pH 8.0, 250 mM NaCl, 2% glycerol, 0.03% Tween-20, 0.01% TritonX-100, 0.1% BSA w/v) using a 3-fold serial dilution from 10 uM to 5 nM. Probe solution (65 nM full-length B-Catenin (Uniprot ID P35222), mixed with 10 nM biotin labeled TCF4 residues 10-53 (Uniprot ID Q9NQB0) peptide in buffer) was prepared and 4 uL per well was plated in a white polystyrene 384-well plate (Corning). Equal volume of the titrated peptide was added to the plate and incubated for 15 minutes at 20° C. Then 4 uL of donor and 4 uL acceptor beads at 10 ug/mL were added to the plate, for a 16 uL reaction pool and protected from light for 60 minutes at 20° C. prior to read. Reads were performed on a CLARIOstar plate reader (BMG Labtech) in duplicate, and data were fitted to a 1:1 binding model with hill slope using an in-house script. All provided concentrations are final concentrations.

| SMILES | CHI Log D (CHI Log D procedure) | EC50 [1] | chromatographic logD (CHI Log D procedure) |
| --- | --- | --- | --- |
| COc1cccc(C[C@@H]2NC(=O)[C@H](C)NC(=O)[C@H](C)NC(=O)[C@H](CC(=O)O)NC(=O)[C@H](CC(=O)O)NC(=O)[C@](C)(NC(=O)[C@H](C)NC(=O)[C@H](CC(=O)O)NC(=O)[C@H](Cc3ccccc3)NC(C)=O)CCCCCCC=CCOC(=O)N3CC[C@@](C(=O)N[C@@H](Cc4ccccc4)C(=O)N[C@@H](Cc4c[nH]c5ccccc45)C(=O)N[C@@H](CCC(N)=O)C(N)=O)(C3)NC(=O)[C@H](C(C)C)NC2=O)c1 [I-104, Ac-Phe-Asp-Ala-R8-Asp-Asp-Ala-Ala-3OMeF-Val-PyrS-Phe-Trp-Gln-NH2] | 1.333 | 6.17 µM |  |
| CC(=O)N[C@@H](Cc1ccccc1)C(=O)N[C@@H](CC(=O)O)C(=O)N[C@@H](C)C(=O)N[C@]1(C)CCCCCCC=CCOC(=O)N2CC[C@@](C(=O)N[C@@H](CC3CCCCC3)C(=O)N[C@@H](Cc3c[nH]c4ccccc34)C(=O)N[C@@H](CCC(N)=O)C(N)=O)(C2)NC(=O)[C@H](C(C)C)NC(=O)[C@H](Cc2ccccc2)NC(=O)[C@H](C)NC(=O)[C@H](C)NC(=O)[C@H](CC(=O)O)NC(=O)[C@H](CC(=O)O)NC1=O [I-61, Ac-Phe-Asp-Ala-R8-Asp-Asp-Ala-Ala-Phe-Val-PyrS-Cha-Trp-Gln-NH2] | 1.446 | 8.9 µM |  |
| CC(=O)N[C@@H](Cc1ccccc1)C(=O)N[C@@H](CC(=O)O)C(=O)N[C@@H](C)C(=O)NC12CN(C1)C(=O)OCC=CCCCCCC[C@@](C)(C(=O)N[C@@H](Cc1ccccc1)C(=O)N[C@@H](Cc1c[nH]c3ccccc13)C(=O)N[C@@H](CCC(N)=O)C(N)=O)NC(=O)[C@H](C(C)C)NC(=O)[C@H](Cc1ccccc1)NC(=O)[C@H](C)NC(=O)[C@H](C)NC(=O)[C@H](CC(=O)O)NC(=O)[C@H](CC(=O)O)NC2=O [I-35, Ac-Phe-Asp-Ala-Az-Asp-Asp-Ala-Ala-Phe-Val-S8-Phe-Trp-Gln-NH2] |  | 9.54 µM | 1.33 |
| CC(=O)N1CCC[C@]12CC=CCCCC1(CCCC=CCCCCCC[C@@](C)(C(=O)N[C@@H](Cc3ccc(C(F)(F)F)cc3)C(=O)N[C@@H](Cc3c[nH]c4ccccc34)C(=O)N[C@@H](CCC(N)=O)C(N)=O)NC(=O)[C@H](C(C)C)NC(=O)[C@H](Cc3ccccc3)NC(=O)[C@H](C)NC(=O)[C@H](C)NC(=O)[C@H](CC(=O)O)NC(=O)[C@H](CC(=O)O)NC1=O)NC(=O)[C@H](C)NC(=O)[C@H](CC(=O)O)NC2=O (stereo partly drawn) [I-252, Ac-PL3-Asp-Ala-B5-Asp-Asp-Ala-Ala-Phe-Val-S8-4F3MeF-Trp-Gln-NH2] | 2.214 | 3.69 µM |  |
| CC(=O)N[C@@H](Cc1ccccc1)C(=O)N[C@@H](CC(=O)O)C(=O)N[C@@H](C)C(=O)N[C@]1(C)CCCCCCC=CCOC(=O)N2CC[C@@](C(=O)N[C@@H](Cc3ccccc3)C(=O)N[C@@H](Cc3c[nH]c4ccccc34)C(=O)N[C@@H](CCC(N)=O)C(N)=O)(C2)NC(=O)[C@H](C(C)C)NC(=O)[C@H](Cc2ccc(C(N)=O)cc2)NC(=O)[C@H](C)NC(=O)[C@H](C)NC(=O)[C@H](CC(=O)O)NC(=O)[C@H](CC(=O)O)NC1=O [I-91, Ac-Phe-Asp-Ala-R8-Asp-Asp-Ala-Ala-4CBMF-Val-PyrS-Phe-Trp-Gln-NH2] | 1.13 | 4.72 µM |  |
| CC(=O)N1CCC[C@]12CC=CCCCC1(CCCC=CCCCCCC[C@@](C)(C(=O)N[C@@H](Cc3ccccc3)C(=O)N[C@@H](Cc3csc4ccccc34)C(=O)N[C@@H](CCC(N)=O)C(N)=O)NC(=O)[C@H](CO)NC(=O)[C@H](Cc3ccccc3)NC(=O)[C@H](C)NC(=O)[C@H](C)NC(=O)[C@H](Cc3ccc4ccccc4c3)NC(=O)[C@H](CC(=O)O)NC1=O)NC(=O)[C@H](C)NC(=O)[C@H](CC(=O)O)NC2=O (stereo partly drawn) [I-298, Ac-PL3-Asp-Ala-B5-Asp-2NapA-Ala-Ala-Phe-Ser-S8-Phe-BztA-Gln-NH2] |  | 3.86 µM | 2.78 |
| CC(=O)N[C@@H](Cc1ccccc1)C(=O)N[C@@H](CC(=O)O)C(=O)N[C@@H](C)C(=O)N[C@]1(C)CCCCCCC=CCOC(=O)N2CC[C@@](C(=O)N[C@@H](Cc3ccccc3)C(=O)N[C@@H](Cc3c[nH]c4ccccc34)C(=O)N[C@@H](CCC(N)=O)C(N)=O)(C2)NC(=O)[C@H]([C@@H](C)O)NC(=O)[C@H](Cc2ccccc2)NC(=O)[C@H](C)NC(=O)[C@H](C)NC(=O)[C@H](CC(=O)O)NC(=O)[C@H](CC(=O)O)NC1=O [I-224, Ac-Phe-Asp-Ala-R8-Asp-Asp-Ala-Ala-Phe-Thr-PyrS-Phe-Trp-Gln-NH2] | 1.401 | 4.12 µM |  |
| CC(=O)N1CCC[C@]12CC=CCCCC1(CCCC=CCCCCCC[C@@](C)(C(=O)N[C@@H](Cc3ccccc3)C(=O)N[C@@H](CC3CNc4ccccc43)C(=O)N[C@@H](CCC(N)=O)C(N)=O)NC(=O)[C@H](C(C)C)NC(=O)[C@H](Cc3ccccc3)NC(=O)[C@H](C)NC(=O)[C@H](C)NC(=O)[C@H](CCC(=O)O)NC(=O)[C@H](CC(=O)O)NC1=O)NC(=O)[C@H](C)NC(=O)[C@H](CC(=O)O)NC2=O (stereo partly drawn) [I-168, Ac-PL3-Asp-Ala-B5-Asp-Glu-Ala-Ala-Phe-Val-S8-Phe-H2Trp-Gln-NH2] | 1.942 | 5.64 µM |  |
| CC(=O)N[C@@H](Cc1ccccc1)C(=O)N[C@@H](CC(=O)O)C(=O)N[C@@H](C)C(=O)N[C@]1(C)CCCCCCC=CCOC(=O)N2CC[C@@](C(=O)N[C@@H](Cc3ccc(C(=O)O)cc3)C(=O)N[C@@H](Cc3c[nH]c4ccccc34)C(=O)N[C@@H](CCC(N)=O)C(N)=O)(C2)NC(=O)[C@H](C(C)C)NC(=O)[C@H](Cc2ccccc2)NC(=O)[C@H](C)NC(=O)[C@H](C)NC(=O)[C@H](CC(=O)O)NC(=O)[C@H](CC(=O)O)NC1=O [I-111, Ac-Phe-Asp-Ala-R8-Asp-Asp-Ala-Ala-Phe-Val-PyrS-4COOHF-Trp-Gln-NH2] | 0.779 | 7.64 µM |  |
| CC(=O)N1CCC[C@]12CC=CCCCC1(CCCC=CCCCCCC[C@@](C)(C(=O)N[C@@H](Cc3ccccc3)C(=O)N[C@@H](CC3CNc4ccccc43)C(=O)N[C@@H](CCC(N)=O)C(N)=O)NC(=O)[C@H](C(C)C)NC(=O)[C@H](Cc3ccccc3)NC(=O)[C@H](C)NC(=O)[C@H](C)NC(=O)[C@H](CCC(=O)O)NC(=O)[C@H](CC(=O)O)NC1=O)NC(=O)[C@H](C)NC(=O)[C@H](CC(=O)O)NC2=O (stereo partly drawn) [I-167, Ac-PL3-Asp-Ala-B5-Asp-Glu-Ala-Ala-Phe-Val-S8-Phe-H2Trp-Gln-NH2] | 1.927 | 6.2 µM |  |
| CC(=O)N[C@@H](Cc1ccccc1)C(=O)N[C@@H](CC(=O)O)C(=O)N[C@@H](C)C(=O)N[C@]1(C)CCCCCCC=CCOC(=O)N2CC[C@@](C(=O)N[C@@H](Cc3ccccc3)C(=O)N[C@@H](Cc3c[nH]c4ccccc34)C(=O)N[C@@H](CCC(N)=O)C(N)=O)(C2)NC(=O)[C@H]([C@@H](C)O)NC(=O)[C@H](Cc2ccccc2)NC(=O)[C@H](C)NC(=O)[C@H](C)NC(=O)[C@H](CC(=O)O)NC(=O)[C@H](CC(=O)O)NC1=O [I-223, Ac-Phe-Asp-Ala-R8-Asp-Asp-Ala-Ala-Phe-Thr-PyrS-Phe-Trp-Gln-NH2] | 1.401 | 4.12 µM |  |
| CC(=O)N1CCC[C@]12CC=CCCCC1(CCCC=CCOC(=O)N(C)CCC[C@@](C)(C(=O)N[C@@H](Cc3ccccc3)C(=O)N[C@@H](Cc3c[nH]c4ccccc34)C(=O)N[C@@H](CCC(N)=O)C(N)=O)NC(=O)[C@H](C(C)C)NC(=O)[C@H](Cc3ccccc3)NC(=O)[C@H](C)NC(=O)[C@H](C)NC(=O)[C@H](CC(=O)O)NC(=O)[C@H](CC(=O)O)NC1=O)NC(=O)[C@H](C)NC(=O)[C@H](CC(=O)O)NC2=O (stereo partly drawn) [I-53, Ac-PL3-Asp-Ala-B5-Asp-Asp-Ala-Ala-Phe-Val-SeN-Phe-Trp-Gln-NH2] | 1.307 | 1.14 µM |  |
| CC(=O)N1CCC[C@]12CC=CCCCC1(CCCC=CCCCCCC[C@@](C)(C(=O)N[C@@H](Cc3ccccc3)C(=O)N[C@@H](Cc3c[nH]c4ccc(F)cc34)C(=O)N[C@@H](CCC(N)=O)C(N)=O)NC(=O)[C@H](C(C)C)NC(=O)[C@H](Cc3ccccc3)NC(=O)[C@H](C)NC(=O)[C@H](C)NC(=O)[C@H](CCC(=O)O)NC(=O)[C@H](CC(=O)O)NC1=O)NC(=O)[C@H](C)NC(=O)[C@H](CC(=O)O)NC2=O (stereo partly drawn) [I-146, Ac-PL3-Asp-Ala-B5-Asp-Glu-Ala-Ala-Phe-Val-S8-Phe-5FW-Gln-NH2] |  | 1.22 µM | 2 |
